Data: patent publication US11618761B2, “Phosphonium ion channel blockers and methods for use” (Nocion Therapeutics, Inc., priority 2019, dated 2023)
Structures can show the parent of a compound that is named as a salt.

Assays:
[1] = target: T1, NaV1.7 (Homo sapiens, UniProt Q15858); assay: Whole cell patch clamp, internal block of NaV1.7 current (compound in internal solution); type: cell-based; details: compound applied internally, 5 Hz stimulation, read-out: Nav1.7 Intracellular Inhibition; for inhibition at 10 µM: % inhibition at 10 μM test concentration; for inhibition at 3 µM: % inhibition at 3 μM test concentration
T1 construct: expressed in transfected cells; tetracycline-inducible, kept under hygromycin and blasticidin selection
Protocol: (§1) NaV1.7 was expressed upon induction with tetracycline. Cells were cultured in DMEM containing 10% dialyzed Fetal Bovine Serum (VWR, Radnor, Pa.), 1% Glutamax (VWR, Radnor, Pa.), 1% Penicillin-Streptomycin (VWR, Radnor, Pa.), 100 mg/L Hygromycin (Thermo Fisher Scientific, Waltham, Mass.) and 5 mg/L Blasticidin (Alfa Aesar, Haverhill, Mass.). Cells were grown and maintained at 37° C. in a humidified environment containing 10% CO2 in air. Cells were detached from the culture flask for passage and harvested using 0.05% Trypsin-EDTA (Thermo Fisher Scientific, Waltham, Mass.). To induce NaV1.7, cells were induced with tetracycline (0.1-1 μg/mL, IBI Scientific, Peosta, Iowa) the day before recording and plated onto 24-well plates. Cells were washed with DPBS (VWR, Radnor, Pa.), trypsinized and then triturated five times in 10 mL of growth media to break apart cell aggregates. For one 24-well plate, 2 mL of cell suspension was mixed with 23 mL of fresh growth media and 0.1-1 μg/mL tetracycline added. 1 ml of mixed media with cells was then added to each well of a 24-well plate, with a 12 mm coverslip already placed in the bottom of the well. Cells were then incubated in 37° C. and 10% CO2 overnight.
The intracellular solution contained the following (in mM) CsCl 135, NaCl 10, EGTA 10, HEPES 10, MgCl2 2, adjusted to pH 7.2 with CsOH. The external solution was a normal Ringer solution containing (in mM) NaCl 155, HEPES 10, glucose 10, KCl 3.5, CaCl2) 1.5, MgCl2 1 adjusted to pH 7.4 with NaOH. CsCl was from Alfa Aesar, Haverhill, Mass. All other chemicals were from Sigma-Aldrich, St. Louis, Mo. In order to test the degree of internal block by test compounds the compounds were dissolved in internal solution at the indicated test concentration. […] In order to test the degree of external block by test compounds the compounds were dissolved in external solution at the indicated test concentration.
18-24 hours after cells were induced with tetracycline, coverslips were placed into a chamber filled with Normal Ringer solution at room temperature and the chamber was placed on a microscope. Pipettes were pulled from borosilicate glass on a P97 puller (Sutter Instrument, Novato, Calif.) and were polished with a MF-830 Microforge (Narishige International USA, Inc, Amityville, N.Y.) to have a resistance of 1.5-2.5 MΩ when filled with CsCl internal solution at room temperature. Healthy cells (those that are round and translucent with no visible blemishes) were chosen for seal formation. A seal was formed between the pipette and the cell, and a brief pulse of suction was used to “break in” and establish the whole-cell configuration. The membrane potential was held at −100 mV before the voltage protocol begins. Only cells with series resistance between 1.5-5 MΩ were retained for analysis. The voltage protocol was as follows: Cells were held at −100 mV for 12 ms followed by a hyperpolarizing step to −105 mV for 12 ms to monitor the leak. Cells were then stepped back to −100 mV for 40 ms. Cells were then depolarized to −20 mV for 10 ms and then returned to −100 mV for 26 ms (the FIGURE).
Once the recording was started, the voltage protocol was run at 30 second intervals for 5 minutes to get a stable baseline. This was followed by four 30-second periods of 5 Hz stimulation of the same voltage protocol separated by 1 minute of rest which was then followed by 0.33 Hz stimulation after the last train. Currents were recorded using PatchMaster software with Heka EPC10 (HEKA Electronics, Lambrecht, Germany). Only cells with inward current amplitudes at −20 mV between 400 pA and 4 nA were accepted. In addition, cells having leak currents greater than 10% of their current amplitudes were discarded.
(§2) The data was plotted using the Patchmaster software (HEKA Electronics, Lambrecht, Germany) and was analyzed by plotting the minimum current during the voltage step to −20 mV (peak inward current) as a function of time. […]

[2] = PAMPA membrane permeability assay; type: in vitro ADME; details: pH 7.4 buffer, GIT lipid, 4 hours incubation, 50 uM
Protocol: The PAMPA assay (pION, Inc., Woburn Mass.) was used to determine the ability of compounds of the invention to cross an artificial lipid membrane by passive diffusion. Test compounds were dissolved in DMSO (10 mM) and diluted 200-fold in buffer (pION Inc., pH 7.4) to provide 50 uM stock solutions. Buffer (150 μL) was added to a UV blank plate and stock solutions (150 μL) were transferred to a UV reference plate. The blank and reference spectrum were read using a spectrophotometer. Stock solutions (200 μL) were added to the donor plate of the PAMPA sandwich plate and an accept plate painted with GIT lipid (pION Inc, 5 μL) was placed on top. Buffer (200 μL) was added to the acceptor plate and the PAMPA sandwich plate was incubated for 4 hours. Aliquots (150 μL) from the acceptor plate were added to a UV plate and read as acceptor spectrum. Aliquots (150 μL) of the donor solutions were added to a UV analysis plate and read as donor spectrum. The permeability coefficient of test compounds was calculated using PAMPA Explorer™ software (version 3.5.0.4) based on the AUC of the reference plate, the donor plate, and the acceptor plate.

[3] = target: T1, NaV1.7; assay: Whole cell patch clamp, external block of NaV1.7 current (compound in external solution); type: cell-based; details: % inhibition at 10 μM test concentration, compound applied externally for 5 minutes; read-out: Nav1.7 Extracellular Inhibition
Protocol: as §1, with “For one 24-well plate, 2 mL of cell suspension was mixed with 23 mL of fresh growth media and 0.1-1 μg/mL tetracycline added. 1 ml of mixed media with cells was then added to each well of a 24-well plate, with a 12 mm coverslip already placed in the bottom of the well. Cells were then incubated in 37° C. and 10% CO2 overnight.” left out
Once the recording was started, the voltage protocol was run at 30 second intervals for 5 minutes to get a stable baseline. […] Currents were recorded using PatchMaster software with Heka EPC10 (HEKA Electronics, Lambrecht, Germany). […]
as §2

T1 sequence (Q15858 whole entry): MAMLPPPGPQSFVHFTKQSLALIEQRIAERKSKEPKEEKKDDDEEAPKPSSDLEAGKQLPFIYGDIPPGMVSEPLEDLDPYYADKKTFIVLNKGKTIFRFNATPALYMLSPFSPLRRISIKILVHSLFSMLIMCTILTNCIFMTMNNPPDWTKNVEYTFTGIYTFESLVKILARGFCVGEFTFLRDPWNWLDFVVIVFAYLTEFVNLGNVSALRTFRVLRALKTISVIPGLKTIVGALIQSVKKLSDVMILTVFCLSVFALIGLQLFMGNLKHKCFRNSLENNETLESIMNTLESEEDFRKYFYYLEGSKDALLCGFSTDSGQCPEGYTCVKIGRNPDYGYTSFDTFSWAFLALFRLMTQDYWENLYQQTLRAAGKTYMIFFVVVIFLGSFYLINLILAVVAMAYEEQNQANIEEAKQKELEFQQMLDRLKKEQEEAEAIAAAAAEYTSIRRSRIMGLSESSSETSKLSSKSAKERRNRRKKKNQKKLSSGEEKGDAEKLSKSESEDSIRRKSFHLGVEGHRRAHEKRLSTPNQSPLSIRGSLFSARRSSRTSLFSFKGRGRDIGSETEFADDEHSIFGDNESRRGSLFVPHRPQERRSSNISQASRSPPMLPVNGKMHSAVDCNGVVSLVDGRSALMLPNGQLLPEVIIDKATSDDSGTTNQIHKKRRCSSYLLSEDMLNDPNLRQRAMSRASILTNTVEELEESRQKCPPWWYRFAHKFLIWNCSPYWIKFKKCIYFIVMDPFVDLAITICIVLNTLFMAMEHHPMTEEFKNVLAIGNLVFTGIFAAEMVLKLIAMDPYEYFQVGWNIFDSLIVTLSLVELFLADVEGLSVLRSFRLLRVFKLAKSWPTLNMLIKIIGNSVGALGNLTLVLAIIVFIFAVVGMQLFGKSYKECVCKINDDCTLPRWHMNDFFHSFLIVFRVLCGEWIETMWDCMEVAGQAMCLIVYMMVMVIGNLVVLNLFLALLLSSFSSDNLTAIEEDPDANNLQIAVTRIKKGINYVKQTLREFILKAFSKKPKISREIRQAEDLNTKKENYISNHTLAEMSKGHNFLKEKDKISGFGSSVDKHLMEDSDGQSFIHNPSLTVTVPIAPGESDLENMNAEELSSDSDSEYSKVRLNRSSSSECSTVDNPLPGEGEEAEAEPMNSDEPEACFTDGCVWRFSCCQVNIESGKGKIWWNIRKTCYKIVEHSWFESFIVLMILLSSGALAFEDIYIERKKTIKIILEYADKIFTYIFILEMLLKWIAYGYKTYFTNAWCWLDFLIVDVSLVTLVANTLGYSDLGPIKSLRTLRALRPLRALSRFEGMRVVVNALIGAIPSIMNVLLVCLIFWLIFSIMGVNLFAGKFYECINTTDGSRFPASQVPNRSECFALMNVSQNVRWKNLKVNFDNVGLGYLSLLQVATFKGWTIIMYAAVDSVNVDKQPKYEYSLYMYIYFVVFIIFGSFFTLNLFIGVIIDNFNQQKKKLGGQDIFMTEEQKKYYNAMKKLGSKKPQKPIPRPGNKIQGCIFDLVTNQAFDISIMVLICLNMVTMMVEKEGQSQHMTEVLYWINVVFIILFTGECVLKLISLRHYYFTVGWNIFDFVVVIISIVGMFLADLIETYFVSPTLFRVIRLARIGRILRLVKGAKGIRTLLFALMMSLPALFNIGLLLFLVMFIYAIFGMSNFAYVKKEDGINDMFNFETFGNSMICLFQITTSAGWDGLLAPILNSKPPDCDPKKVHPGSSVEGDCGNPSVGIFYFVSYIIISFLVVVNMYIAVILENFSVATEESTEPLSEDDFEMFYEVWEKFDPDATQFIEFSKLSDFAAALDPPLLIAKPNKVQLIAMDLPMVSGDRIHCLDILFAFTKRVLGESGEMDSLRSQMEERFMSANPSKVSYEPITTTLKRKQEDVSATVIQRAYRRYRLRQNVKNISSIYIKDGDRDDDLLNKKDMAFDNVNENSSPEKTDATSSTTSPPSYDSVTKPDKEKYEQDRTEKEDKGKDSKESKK

Compound | inhibition at 10 µM [1] [%] | PAMPA (10^−6 cm/s) [2] | inhibition at 3 µM [1] [%] | inhibition at 10 µM [3] [%]
CC[P+](CC)(CC)CC(=O)Nc1c(C)csc1C(=O)OC.[Br-] [Compound 1A, triethyl(2-((2-(methoxycarbonyl)-4-methylthiophen-3-yl)amino)-2-oxoethyl) Phosphonium Bromide] | 40 to 70 | + (“+” (<0.1 10^−6 cm/s)) |  | 
COC(=O)c1scc(C)c1NC(=O)C[P+]1(Cc2ccccc2)CCCCC1.[Br-] [Compound 8A, 1-benzyl-1-(2-((2-(methoxycarbonyl)-4-methylthiophen-3-yl)amino)-2-oxoethyl)phosphinan-1-ium Bromide] |  | ++ (“++” (0.1-2.0 10^−6 cm/s)) | 70 to 90 | 
COC(=O)c1scc(C)c1NC(=O)C[P+]1(Cc2ccccc2)CCCCC1 [Compound 8] |  |  |  | < 40
CCC(C(=O)Nc1c(C)csc1C(=O)OC)[P+]1(Cc2ccccc2)CCCCC1 (stereo not drawn) [Compound 10A, 1-benzyl-1-(1-((2-(methoxycarbonyl)-4-methylthiophen-3-yl)amino)-1-oxobutan-2-yl)phosphinan-1-ium Formate] |  | +++. (“+++” (2.0-10.010^−6 cm/s)) | > 90 | 
CCCC[P+](CCCC)(CCCC)CC(=O)Nc1c(C)csc1C(=O)OC.[Br-] [Compound 17A, tributyl(2-((2-(methoxycarbonyl)-4-methylthiophen-3-yl)amino)-2-oxoethyl) Phosphonium Bromide] | 70 to 95 | + (“+” (<0.1 10^−6 cm/s)) |  | 

More lines, now with the values ahead:

inhibition at 10 µM [1] [%] | PAMPA (10^−6 cm/s) [2] | inhibition at 3 µM [1] [%] | inhibition at 10 µM [3] [%] | Compound
70 to 95 |  |  |  | COC(=O)c1scc(C)c1NC(=O)C[P+](c1ccccc1)(c1ccccc1)c1ccccc1 [Compound 19A]
 | + (“+” (<0.1 10^−6 cm/s)) | 70 to 90 |  | CC[P+](CC)(CC)CC(=O)Nc1c(C)csc1C(=O)OC(C)(C)C.[Br-] [Compound 21A]
